Results on 27 compounds are retold here after patent publication US10618903B2, “Heteroaryl substituted aminopyridine compounds” (BRISTOL-MYERS SQUIBB COMPANY, priority 2015, dated 2020).

SMILES strings stand for the structures.

Assay [1] deals with IL-6 levels in human whole blood stimulated with a TLR2 agonist. In words: IRAK4 Whole Blood Assay (lipoteichoic acid/TLR2-stimulated IL-6). Particulars: Homo sapiens, lipoteichoic acid 10 μg/mL, IL-6 readout. It counts as cell-based. Here is the method: Human whole blood containing the anti-coagulant ACD-A was plated in 384-well plate (25 μL/well) and incubated with compounds for 60 minutes at 37° C. in a 5% CO2 incubator. The blood was stimulated with a TLR2 agonist, 10 μg/mL final concentration of lipoteichoic acid (Invivogen, San Diego, Calif.) in 25 μL RPMI (Gibco) for 5 hours in a 5% CO2 incubator. At the end of the incubation, plates were centrifuged at 2300 rpm for 5 minutes. Supernatants were harvested and analyzed for IL-6 levels by Flow Cytometry beads assay (BD Biosciences, San Jose, Calif.).

The next assay addresses IRAK4 (Homo sapiens (Human), UniProt Q9NWZ3). In words: IRAK4 Inhibition Assay. The assay is classed as biochemical. Particulars: ATP 500 μM; IRAK4 0.6 nM. The procedure: The assays were performed in U-bottom 384-well plates. The final assay volume was 30 μL prepared from 15 μL additions of enzyme and substrates (fluoresceinated peptide and ATP) and test compounds in assay buffer (20 mM HEPES pH 7.2, 10 mM MgCl2, 0.015% Brij 35 and 4 mM DTT). The reaction was initiated by the combination of IRAK4 with substrates and test compounds. The reaction mixture was incubated at room temperature for 60 min. and terminated by adding 45 μL of 35 mM EDTA to each sample. The reaction mixture was analyzed on the Caliper LABCHIP® 3000 (Caliper, Hopkinton, Mass.) by electrophoretic separation of the fluorescent substrate and phosphorylated product. Inhibition data were calculated by comparison to no enzyme control reactions for 100% inhibition and vehicle-only reactions for 0% inhibition. The final concentrations of reagents in the assays are ATP, 500 μM; FL-IPTSPITTTYFFFKKK peptide 1.5 μM; IRAK4, 0.6 nM; and DMSO, 1.6%.

IRAK4, sequence (Q9NWZ3 whole entry): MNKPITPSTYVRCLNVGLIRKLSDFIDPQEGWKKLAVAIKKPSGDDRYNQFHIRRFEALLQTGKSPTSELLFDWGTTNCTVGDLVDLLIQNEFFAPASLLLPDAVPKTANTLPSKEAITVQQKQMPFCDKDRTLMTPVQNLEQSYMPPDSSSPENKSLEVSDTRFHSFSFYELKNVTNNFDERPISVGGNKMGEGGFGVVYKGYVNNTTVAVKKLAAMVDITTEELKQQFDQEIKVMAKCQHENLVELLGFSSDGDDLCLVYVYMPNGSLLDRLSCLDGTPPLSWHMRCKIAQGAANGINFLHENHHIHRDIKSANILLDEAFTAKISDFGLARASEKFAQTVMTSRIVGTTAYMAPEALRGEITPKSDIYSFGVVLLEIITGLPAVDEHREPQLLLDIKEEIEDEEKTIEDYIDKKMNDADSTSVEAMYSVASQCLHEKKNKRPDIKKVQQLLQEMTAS

Regarding `CC(C)(O)[C@H]1CC[C@H](NC(=O)c2cnc(-c3cnn4cc(Cl)cnc34)cc2Nc2cnn(C3CC3)c2)CC1` [Example 254, 6-(6-chloropyrazolo[1,5-a]pyrimidin-3-yl)-4-((1-cyclopropyl-1H-pyrazol-4-yl)amino)-N-((1r,4r)-4-(2-hydroxypropan-2-yl)cyclohexyl)nicotinamide], in assay [1], the EC50 – broadly, the concentration that produces a half-maximal response – amounted to 470 nM. Moreover, the IC50 (commonly the concentration that inhibits the measured activity by half) on IRAK4 was determined as 2 nM. In assay [1], `CC(C)Nc1cc(-c2cnn3cc(Cl)cnc23)ncc1C(=O)NC[C@@H](F)C(C)(C)OC(F)F` [Example 157, (R)-6-(6-chloropyrazolo[1,5-a]pyrimidin-3-yl)-N-(3-(difluoromethoxy)-2-fluoro-3-methylbutyl)-4-(isopropylamino)nicotinamide] gave an EC50 of 930 nM. Besides, on IRAK4, the IC50 was 3 nM. The corresponding values for `CC(C)Nc1cc(-c2cnc3cc(C#N)cnn23)ncc1C(=O)NCC(F)C1CC(C)OC(C)C1` (single isomer, unassigned) [Example 176, 6-(7-cyanoimidazo[1,2-b]pyridazin-3-yl)-N-(2-(2,6-dimethyltetrahydro-2H-pyran-4-yl)-2-fluoroethyl)-4-(isopropylamino)nicotinamide] are 540 nM and 3 nM. The corresponding values for `COC(=O)N[C@H]1CC[C@H](NC(=O)c2cnc(-c3cnn4cc(Cl)cnc34)cc2Nc2cnn(C)c2)CC1` [Example 257, methyl ((1r,4r)-4-(6-(6-chloropyrazolo[1,5-a]pyrimidin-3-yl)-4-((1-methyl-1H-pyrazol-4-yl)amino)nicotinamido)cyclohexyl)carbamate] are 710 nM and 14 nM. Consider `COC(C)(C)[C@H]1CC[C@H](NC(=O)c2cnc(-c3cnc4cc(Cl)cnn34)cc2NC2COC2)CC1` [Example 191, 6-(7-chloroimidazo[1,2-b]pyridazin-3-yl)-N-((1r,4r)-4-(2-methoxypropan-2-yl)cyclohexyl)-4-(oxetan-3-ylamino)nicotinamide], for which the response in assay [1] was half-maximal at 630 nM (EC50). On the same count and under the same terms, for `CC(C)(O)[C@H](F)CNC(=O)c1cnc(-c2cnn3cc(C#N)cnc23)cc1Nc1ccc(C(N)=O)cc1` [Example 112, (R)-4-((4-carbamoylphenyl)amino)-6-(6-cyanopyrazolo[1,5-a]pyrimidin-3-yl)-N-(2-fluoro-3-hydroxy-3-methylbutyl)nicotinamide] the value was 820 nM. In assay [1], `CC(C)(O)[C@H](F)CNC(=O)c1cnc(-c2cnc3cc(C#N)cnn23)cc1NC1CC1` [Example 182, (R)-6-(7-cyanoimidazo[1,2-b]pyridazin-3-yl)-4-(cyclopropylamino)-N-(2-fluoro-3-hydroxy-3-methylbutyl)nicotinamide] returned an EC50 of 620 nM. Also, at IRAK4, the IC50 was determined as 2 nM. In turn, `CC1(Nc2cc(-c3cnn4cc(Cl)cnc34)ncc2C(=O)NC[C@@H](F)C(C)(C)O)CC1` [Example 80, (R)-6-(6-chloropyrazolo[1,5-a]pyrimidin-3-yl)-N-(2-fluoro-3-hydroxy-3-methylbutyl)-4-((1-methylcyclopropyl)amino)nicotinamide] showed a concentration giving a half-maximal response (EC50) in assay [1] of 840 nM. The half-maximal inhibitory concentration (IC50) on IRAK4 came to 6 nM. Take `CC(C)(C)Nc1cc(-c2cnc3cc(C#N)cnn23)ncc1C(=O)NC[C@@H](F)C(C)(C)O` [Example 187, (R)-4-(tert-butylamino)-6-(7-cyanoimidazo[1,2-b]pyridazin-3-yl)-N-(2-fluoro-3-hydroxy-3-methylbutyl)nicotinamide]: a half-maximal effect in assay [1] (EC50) was put at 200 nM.

As for `CC(C)Nc1cc(-c2cnn3cc(Cl)cnc23)ncc1C(=O)NCCC1(O)CCC(C)(O)CC1` (stereo not drawn) [Example 55, 6-(6-chloropyrazolo[1,5-a]pyrimidin-3-yl)-N-(2-(1,4-dihydroxy-4-methylcyclohexyl)ethyl)-4-(isopropylamino)nicotinamide], the IC50 on IRAK4 was 9 nM. Turning to `CC(C)(O)[C@H](F)CNC(=O)c1cnc(-c2cnn3cc(C#N)cnc23)cc1N[C@H]1COC[C@@H]1F` (single isomer, unassigned) [Example 116], the IC50 at IRAK4 was 21 nM. The same measure, in the same setting: for `COc1cnn2c(-c3cc(NC(C)C)c(C(=O)NC[C@@H](F)C(C)(C)O)cn3)cnc2c1` [Example 153, (R)—N-(2-fluoro-3-hydroxy-3-methylbutyl)-4-(isopropylamino)-6-(7-methoxyimidazo[1,2-b]pyridazin-3-yl)nicotinamide] the value was 13 nM; for `CC(C)Nc1cc(-c2cnn3cc(Cl)cnc23)ncc1C(=O)NCC(F)C1(O)COC1` (stereo not drawn) [Example 9, 6-(6-chloropyrazolo[1,5-a]pyrimidin-3-yl)-N-(2-fluoro-2-(3-hydroxyoxetan-3-yl)ethyl)-4-(isopropylamino)nicotinamide], 5 nM. `CC(C)(O)[C@H](F)CNC(=O)c1cnc(-c2cnn3cc(C#N)cnc23)cc1Nc1ccn(CC(F)F)c1` [Example 225, (R)-6-(6-cyanopyrazolo[1,5-a]pyrimidin-3-yl)-4-((1-(2,2-difluoroethyl)-1H-pyrrol-3-yl)amino)-N-(2-fluoro-3-hydroxy-3-methylbutyl)nicotinamide] registered an EC50 in assay [1] of 80 nM. In other words, the double-digit nanomolar range. As to `CNC(=O)[C@H]1CC[C@H](NC(=O)c2cnc(-c3cnn4cc(Cl)cnc34)cc2NCC(C)(C)F)CC1` [Example 24, 6-(6-chloropyrazolo[1,5-a]pyrimidin-3-yl)-4-((2-fluoro-2-methylpropyl)amino)-N-((1r,4r)-4-(methylcarbamoyl)cyclohexyl)nicotinamide], at IRAK4, the half-maximal inhibitory concentration (IC50) worked out at 35 nM. Still for that read-out and setting: the value for `CC(C)Nc1cc(-c2cnc3ccc(N)nn23)ncc1C(=O)NC[C@@H](F)C(C)(C)O` [Example 150, (R)-6-(6-aminoimidazo[1,2-b]pyridazin-3-yl)-N-(2-fluoro-3-hydroxy-3-methylbutyl)-4-(isopropylamino)nicotinamide] was 12 nM. Take `CC(C)Nc1cc(-c2cnn3cc(Cl)cnc23)ncc1C(=O)NCC(F)C(O)(CO)CO` (stereo not drawn) [Example 8, 6-(6-chloropyrazolo[1,5-a]pyrimidin-3-yl)-N-(2-fluoro-3,4-dihydroxy-3-(hydroxymethyl)butyl)-4-(isopropylamino)nicotinamide]: the half-maximal inhibitory concentration (IC50) on IRAK4 turned out to be 24 nM. Same read-out and setting: for `CO[C@H]1CC[C@H](NC(=O)c2cnc(-c3cnn4cc(C#N)cnc34)cc2NC2COC2)CC1` [Example 124, 6-(6-cyanopyrazolo[1,5-a]pyrimidin-3-yl)-N-((1r,4r)-4-methoxycyclohexyl)-4-(oxetan-3-ylamino)nicotinamide] the value was 12 nM; for `CC(C)(O)[C@H](F)CNC(=O)c1cnc(-c2cnn3cc(C#N)cnc23)cc1NC1CCCC1O` (stereo partly drawn) [Example 103, 6-(6-cyanopyrazolo[1,5-a]pyrimidin-3-yl)-N—((R)-2-fluoro-3-hydroxy-3-methylbutyl)-4-((2-hydroxycyclopentyl)amino)nicotinamide], 44 nM. Same read-out and setting: for `COc1cnn2c(-c3cc(NC4COC4)c(C(=O)NC[C@@H](F)C(C)(C)O)cn3)cnc2c1` [Example 154, (R)—N-(2-fluoro-3-hydroxy-3-methylbutyl)-6-(7-methoxyimidazo[1,2-b]pyridazin-3-yl)-4-(oxetan-3-ylamino)nicotinamide] the value was 16 nM; for `CC(C)(O)[C@H](F)CNC(=O)c1cnc(-c2cnn3cc(Cl)cnc23)cc1NC1CCOC1` (stereo partly drawn) [Example 54, 6-(6-chloropyrazolo[1,5-a]pyrimidin-3-yl)-N—((R)-2-fluoro-3-hydroxy-3-methylbutyl)-4-((tetrahydrofuran-3-yl)amino)nicotinamide], 3 nM; for `CC(C)(O)[C@H](F)CNC(=O)c1cnc(-c2cnn3cc(C#N)cnc23)cc1NCC1(O)CCCOC1` (single isomer, unassigned) [Example 122], 30 nM.

In the case of `CC(C)(O)[C@H](F)CNC(=O)c1cnc(-c2cnc3cccnn23)cc1NC1COCC1O` (single isomer, unassigned) [Example 134], the IC50 on IRAK4 was found to be 92 nM.

Regarding `CC(C)(O)[C@H](F)CNC(=O)c1cnc(-c2cnn3cc(Cl)cnc23)cc1Nc1ccn(CC(F)F)c1` [Example 228, (R)-6-(6-chloropyrazolo[1,5-a]pyrimidin-3-yl)-4-((1-(2,2-difluoroethyl)-1H-pyrrol-3-yl)amino)-N-(2-fluoro-3-hydroxy-3-methylbutyl)nicotinamide], the EC50 in assay [1] amounted to 250 nM. Regarding `CC(C)(O)[C@H](F)CNC(=O)c1cnc(-c2cnc3cccnn23)cc1NC1CCOCC1` [Example 132, (R)—N-(2-fluoro-3-hydroxy-3-methylbutyl)-6-(imidazo[1,2-b]pyridazin-3-yl)-4-((tetrahydro-2H-pyran-4-yl)amino)nicotinamide], the IC50 at IRAK4 was 9 nM. Same read-out and setting: for `CC(C)(O)[C@H](F)CNC(=O)c1cnc(-c2cnn3cc(Cl)cnc23)cc1NC1CCC(F)C1` (stereo partly drawn) [Example 85, 6-(6-chloropyrazolo[1,5-a]pyrimidin-3-yl)-N—((R)-2-fluoro-3-hydroxy-3-methylbutyl)-4-((3-fluorocyclopentyl)amino)nicotinamide] the value was 2 nM; for `COc1ccc2ncc(-c3cc(NC(C)C)c(C(=O)NC[C@@H](F)C(C)(C)O)cn3)n2n1` [Example 149, (R)—N-(2-fluoro-3-hydroxy-3-methylbutyl)-4-(isopropylamino)-6-(6-methoxyimidazo[1,2-b]pyridazin-3-yl) nicotinamide], 18 nM.
